Experimental data taken from ChEMBL document CHEMBL2010645, “N-Caffeoyl serotonin as selective COX-2 inhibitor” (Bioorg Med Chem Lett, 2012).

Legend:
[1] = target: T1, Prostaglandin G/H synthase 2 (Homo sapiens) (UniProt P35354); test: Inhibition of COX2 at 400 uM after 5 mins by spectrophotometric analysis
T1 sequence (whole entry): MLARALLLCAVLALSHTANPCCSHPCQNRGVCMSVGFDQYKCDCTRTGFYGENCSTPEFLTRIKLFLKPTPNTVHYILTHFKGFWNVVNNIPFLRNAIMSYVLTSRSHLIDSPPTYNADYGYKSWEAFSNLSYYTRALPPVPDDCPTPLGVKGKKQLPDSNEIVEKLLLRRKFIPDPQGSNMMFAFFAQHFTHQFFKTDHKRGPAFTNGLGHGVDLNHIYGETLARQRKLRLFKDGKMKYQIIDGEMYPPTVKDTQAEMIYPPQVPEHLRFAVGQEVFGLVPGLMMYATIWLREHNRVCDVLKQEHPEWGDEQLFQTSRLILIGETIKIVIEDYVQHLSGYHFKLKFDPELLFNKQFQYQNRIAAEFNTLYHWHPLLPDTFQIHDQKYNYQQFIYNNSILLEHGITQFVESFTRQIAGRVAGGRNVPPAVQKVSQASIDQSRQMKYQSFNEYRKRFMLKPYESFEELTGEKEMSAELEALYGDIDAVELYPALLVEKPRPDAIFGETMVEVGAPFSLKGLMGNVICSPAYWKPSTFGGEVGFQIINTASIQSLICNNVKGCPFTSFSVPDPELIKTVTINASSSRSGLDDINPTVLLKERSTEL

[2] = target: T2, Prostaglandin G/H synthase 1 (Homo sapiens, UniProt P23219); test: Inhibition of COX1 at 400 uM after 5 mins by spectrophotometric analysis
[3] = target: T2, Prostaglandin G/H synthase 1; test: Inhibition of COX1 after 5 mins by spectrophotometric analysis
[4] = target: T3, Prostaglandin G/H synthase 2 (Homo sapiens, UniProt P35354); test: Uncompetitive inhibition of COX2 by Lineweaver-Burk plot analysis
T3 sequence (P35354 whole entry): T1 sequence (whole entry)

[5] = target: T3, Prostaglandin G/H synthase 2; test: Inhibition of COX2 after 5 mins by spectrophotometric analysis

T2 sequence (P23219 whole entry): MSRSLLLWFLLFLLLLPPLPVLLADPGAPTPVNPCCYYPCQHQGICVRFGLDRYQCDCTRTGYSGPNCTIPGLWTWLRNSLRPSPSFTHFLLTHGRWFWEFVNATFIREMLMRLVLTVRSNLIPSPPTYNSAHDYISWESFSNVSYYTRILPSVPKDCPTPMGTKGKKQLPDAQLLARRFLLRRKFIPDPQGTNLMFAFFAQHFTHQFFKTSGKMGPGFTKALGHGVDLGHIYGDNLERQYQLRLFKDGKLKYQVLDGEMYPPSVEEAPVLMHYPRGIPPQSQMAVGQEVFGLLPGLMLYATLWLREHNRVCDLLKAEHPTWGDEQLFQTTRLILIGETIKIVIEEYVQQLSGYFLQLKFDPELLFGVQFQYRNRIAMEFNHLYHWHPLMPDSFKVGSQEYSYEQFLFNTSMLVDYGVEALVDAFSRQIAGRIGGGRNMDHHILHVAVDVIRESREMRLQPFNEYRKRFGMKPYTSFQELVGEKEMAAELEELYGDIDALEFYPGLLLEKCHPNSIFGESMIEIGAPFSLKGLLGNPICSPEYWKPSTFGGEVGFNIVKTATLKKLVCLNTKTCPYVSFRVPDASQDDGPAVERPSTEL

## CC(=O)Oc1ccccc1C(=O)O
[1]
  inhibition: 19.3%

## COc1cc(/C=C/C(=O)NCCc2c[nH]c3ccc(O)cc23)ccc1O
[1]
  inhibition: 18.8%
[2]
  inhibition: 2.7%

## COc1ccc(/C=C/C(=O)NCCc2c[nH]c3ccc(O)cc23)cc1
[1]
  inhibition: 6.5%
[2]
  inhibition: 21.3%

## COc1ccc(/C=C/C(=O)NCCc2c[nH]c3ccc(O)cc23)cc1O
[1]
  inhibition: 8%
[2]
  inhibition: 7%

## COc1ccc(/C=C/C(=O)NCCc2c[nH]c3ccc(O)cc23)cc1OC
[1]
  inhibition: 18.2%
[2]
  inhibition: 29.9%

## O=C(/C=C/c1ccc(O)cc1)NCCc1c[nH]c2ccc(O)cc12
[1]
  inhibition: 13.9%
[2]
  inhibition: 12.5%

## O=C(/C=C/c1ccccc1)NCCc1c[nH]c2ccc(O)cc12
[1]
  inhibition: 8.2%
[2]
  inhibition: 18.2%

## O=C(O)/C=C/c1ccc(O)c(O)c1 [CAFFEIC ACID]
[3]
  IC50: > 400 µM

## O=C(/C=C/c1ccc(O)c(O)c1)NCCc1c[nH]c2ccc(O)cc12 [N-CAFFEOYLSEROTONIN]
[3]
  IC50: > 400 µM
[1]
  inhibition: 70.5%
[4]
  Ki: 65.5 µM
[2]
  inhibition: 40.6%
[5]
  IC50: 42.5 µM

## COc1cc(/C=C/C(=O)NCCc2c[nH]c3ccc(O)cc23)cc(OC)c1O [N-SINAPOYL SEROTONIN]
[3]
  IC50: > 400 µM
[1]
  inhibition: 27.2%
[2]
  inhibition: 44.9%
[5]
  IC50: > 400 µM

## NCCc1c[nH]c2ccc(O)cc12 [SEROTONIN]
[3]
  IC50: > 400 µM
[5]
  IC50: > 400 µM

## COc1cc(/C=C/C(=O)O)cc(OC)c1O [SINAPINATE]
[3]
  IC50: 39.2 µM
[5]
  IC50: 28 µM
